Assay results published in PubChem BioAssay AID206 (DTP/NCI, 2004).
Values joined by “and” are separate entries in the source; they are usually repeats but may differ in a detail not shown here. Identical values can stand only once. Results filed as inconclusive are left out. Starred links: 1 amine or outer side, 2 acyl side, 3 side chain; linkers in the order of their positions; H or OH if unused. Positions of bridges follow the written chain, without caps; N, C: chain ends. Non-standard residues stand in square brackets, D forms with d. Residues, ends and D or L forms follow the SMILES beside them. Chains are numbered I, II in the order given. Actinocin(9to1) = Cc1c2oc3c(C)ccc(C(=O)[*:1])c3nc-2c(C(=O)[*:2])c(N)c1=O; aThr = C[C@H](O)[C@H](N)C(=O)O; NMeV = CN[C@H](C(=O)O)C(C)C; Sar = CNCC(=O)O

System: nude mice, HT29 intrarenal xenograft, tumor weight T/C
Test: NCI In Vivo Anticancer Drug Screen. Data for tumor model HT29;CX-1 Human Adenocarcinoma (MER+) (intrarenal inoculation) in NU/NU Swiss (nude) mice
Conditions: endpoint: mean tumor weight change, higher = larger tumour
Procedure, shortened: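 T/C = treated-group value ÷ vehicle-group value, using tumor size or survival.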

[1] = dose: 100.0 mg/kg/injection, schedule: Q04DX004 (sc), vehicle: saline with Tween-80
[2] = dose: 200.0 mg/kg/injection, schedule: Q04DX004 (sc), vehicle: saline with Tween-80
[3] = dose: 400.0 mg/kg/injection, schedule: Q04DX004 (sc), vehicle: saline with Tween-80
[4] = dose: 4.0 mg/kg/injection, schedule: Q01DX010 (sc), vehicle: saline
[5] = dose: 100.0 mg/kg/injection, schedule: Q04DX004 (sc), vehicle: Klucel (hydroxypropylcellulose) (HPC)
[6] = dose: 200.0 mg/kg/injection, schedule: Q04DX004 (sc), vehicle: Klucel (hydroxypropylcellulose) (HPC)
[7] = dose: 12.5 mg/kg/injection, schedule: Q01DX010 (sc), vehicle: saline
[8] = dose: 50.0 mg/kg/injection, schedule: Q01DX010 (sc), vehicle: saline

In the case of `N=C(N)CCCCCCCCC(=N)N`, the T/C (dose: 18.75 mg/kg/injection, schedule: Q04DX004 (sc), vehicle: saline) was 101 % of control.

`CCCCOCN(COCCCC)C(C)Cc1ccccc1` (stereo not given) was tested, and the T/C [1] was 110 % of control, the T/C [2] was 178 % of control and the T/C [3] was 98 % of control. The T/C (dose: 800.0 mg/kg/injection, schedule: Q04DX004 (sc), vehicle: saline with Tween-80) was 97 % of control.

For `Cc1c2oc3c(C)ccc(C(=O)N[C@@H]4C(=O)N[C@H](C(C)C)C(=O)N5CCC[C@H]5C(=O)N(C)CC(=O)N(C)[C@@H](C(C)C)C(=O)O[C@H]4C)c3nc-2c(C(=O)N[C@@H]2C(=O)N[C@H](C(C)C)C(=O)N3CCC[C@H]3C(=O)N(C)CC(=O)N(C)[C@@H](C(C)C)C(=O)O[C@H]2C)c(N)c1=O` (I: [aThr][dV]P[Sar][NMeV] / II: [aThr][dV]P[Sar][NMeV]; ester I:1-I:C, II:1-II:C; linker I:N-II:N via Actinocin(9to1)), the T/C (dose: 25.0 micrograms/kg/injection, schedule: Q01DX010 (sc), vehicle: saline) was 31 % of control.

In the case of `O=C1C=C2C(=CCOC2O)O1` (stereo not given), the T/C (dose: 2.0 mg/kg/injection, schedule: Q04DX004 (sc), vehicle: Klucel (hydroxypropylcellulose) (HPC)) was 53 % of control and the T/C (dose: 4.0 mg/kg/injection, schedule: Q04DX004 (sc), vehicle: Klucel (hydroxypropylcellulose) (HPC)) was 87 % of control.

With `C=C1C(=O)C2=CC1CCC(=O)C1(C)CCC(OC(C)=O)C(C)(C)C1CC2O` (stereo not given) the T/C (dose: 60.0 mg/kg/injection, schedule: Q04DX004 (sc), vehicle: Klucel (hydroxypropylcellulose) (HPC)) was 91 % of control and the T/C (dose: 120.0 mg/kg/injection, schedule: Q04DX004 (sc), vehicle: Klucel (hydroxypropylcellulose) (HPC)) was 116 % of control.

With `NCCCC(N)(C(=O)O)C(F)F` (stereo not given) the T/C (dose: 300.0 mg/kg/injection, schedule: Q04DX004 (sc), vehicle: distilled water + alcohol) was 240 % of control, the T/C (dose: 600.0 mg/kg/injection, schedule: Q04DX004 (sc), vehicle: distilled water + alcohol) was 169 % of control and the T/C (dose: 1200.0 mg/kg/injection, schedule: Q04DX004 (sc), vehicle: distilled water + alcohol) was 75 % of control.

With `COc1cccc2c1C(=O)c1c(O)c3c(c(O)c1C2=O)C[C@@](O)(C(C)=O)C[C@@H]3OC1CC(N(C)C)C(O)C(C)O1` (stereo not given in full) the T/C (dose: 2.5 mg/kg/injection, schedule: Q04DX004 (sc), vehicle: water) was 69 % of control, the T/C [4] was 54 % of control and the T/C (dose: 5.0 mg/kg/injection, schedule: Q04DX004 (sc), vehicle: water) was 45 % of control. The T/C (dose: 10.0 mg/kg/injection, schedule: Q04DX004 (sc), vehicle: water) was 97 % of control.

For `NNC(=S)N/N=C/c1ccccn1`, the T/C (dose: 15.0 mg/kg/injection, schedule: Q04DX004 (sc), vehicle: saline with Tween-80) was 100 % of control, the T/C (dose: 30.0 mg/kg/injection, schedule: Q04DX004 (sc), vehicle: saline with Tween-80) was 76 % of control and the T/C (dose: 60.0 mg/kg/injection, schedule: Q04DX004 (sc), vehicle: saline with Tween-80) was 86 % of control.

`CC1(c2ccc(Cl)cc2)OC(=O)C(=Cc2ccc([N+](=O)[O-])s2)C(=O)O1` (stereo not given) was tested, and the T/C (dose: 50.0 mg/kg/injection, schedule: Q04DX004 (sc), vehicle: saline with Tween-80) was 34 % of control, the T/C [1] was 53 % of control and the T/C [2] was 77 % of control. The T/C [3] was 60 % of control.

`CSC(SC)=C1C(=O)NC(=O)NC1=O` was tested, and the T/C (dose: 18.7 mg/kg/injection, schedule: Q04DX004 (sc), vehicle: suspension in saline) was 66 % of control, the T/C (dose: 37.5 mg/kg/injection, schedule: Q04DX004 (sc), vehicle: suspension in saline) was 77 % of control and the T/C (dose: 75.0 mg/kg/injection, schedule: Q04DX004 (sc), vehicle: suspension in saline) was 49 % of control. For the same molecule, the T/C (dose: 150.0 mg/kg/injection, schedule: Q04DX004 (sc), vehicle: suspension in saline) was 56 % of control and the T/C (dose: 600.0 mg/kg/injection, schedule: Q04DX004 (sc), vehicle: suspension in saline) was 97 % of control.

In the case of `C=C(C(=O)O)C(N)C(=O)O` (stereo not given), the T/C (dose: 225.0 mg/kg/injection, schedule: Q04DX004 (sc), vehicle: suspension in saline) was 114 % of control, the T/C (dose: 450.0 mg/kg/injection, schedule: Q04DX004 (sc), vehicle: suspension in saline) was 64 % of control and the T/C (dose: 900.0 mg/kg/injection, schedule: Q04DX004 (sc), vehicle: suspension in saline) was 109 % of control.

`O=c1n[n+]([O-])ccn1C1OC(CO)C(O)C1O` (stereo not given) was tested, and the T/C (dose: 250.0 mg/kg/injection, schedule: Q04DX004 (sc), vehicle: suspension in saline) was 31 % of control, the T/C (dose: 500.0 mg/kg/injection, schedule: Q04DX004 (sc), vehicle: suspension in saline) was 25 % of control and the T/C (dose: 1000.0 mg/kg/injection, schedule: Q04DX004 (sc), vehicle: suspension in saline) was 27 % of control.

`Cc1c(N)nc([C@H](CC(N)=O)NC[C@H](N)C(N)=O)nc1C(=O)N[C@H](C(=O)N[C@H](C)[C@@H](O)[C@H](C)C(=O)N[C@H](C(=O)NCCc1nc(-c2nc(C(=O)NCCC[S+](C)C)cs2)cs1)[C@@H](C)O)C(OC1OC(CO)C(O)C(O)C1OC1OC(CO)C(O)C(OC(N)=O)C1O)c1cnc[nH]1` (stereo not given in full) was tested, and the T/C [4] was 59 % of control, the T/C (dose: 6.25 mg/kg/injection, schedule: Q04DX004 (sc), vehicle: saline) was 116 % of control and the T/C (dose: 8.0 mg/kg/injection, schedule: Q01DX010 (sc), vehicle: saline) was 59 % of control. The T/C (dose: 8.0 mg/kg/injection, schedule: Q04DX004 (sc), vehicle: saline) was 111 % of control, the T/C (dose: 16.0 mg/kg/injection, schedule: Q04DX004 (sc), vehicle: saline) was 114 % of control and the T/C (dose: 25.0 mg/kg/injection, schedule: Q04DX004 (sc), vehicle: saline) was 160 % of control. The T/C (dose: 32.0 mg/kg/injection, schedule: Q04DX004 (sc), vehicle: saline) was 43 % of control, the T/C (dose: 50.0 mg/kg/injection, schedule: Q04DX004 (sc), vehicle: saline) was 113 % of control and the T/C (dose: 64.0 mg/kg/injection, schedule: Q01DX010 (sc), vehicle: saline) was 42 % of control.

`CNC(=O)OCc1c(COC(=O)NC)c(C)n(-c2ccc(OC)cc2)c1C` was tested, and the T/C (dose: 50.0 mg/kg/injection, schedule: Q04DX004 (sc), vehicle: Klucel (hydroxypropylcellulose) (HPC)) was 69 % of control, the T/C [5] was 90 % of control and the T/C [6] was 46 % of control. The T/C (dose: 400.0 mg/kg/injection, schedule: Q04DX004 (sc), vehicle: Klucel (hydroxypropylcellulose) (HPC)) was 36 % of control.

`CCOC(=O)c1cn(C)c2c1C(O)=C(C(=O)OC)CC(=O)N2` was tested, and the T/C (dose: 225.0 mg/kg/injection, schedule: Q04DX004 (sc), vehicle: saline with Tween-80) was 95 % of control, the T/C (dose: 450.0 mg/kg/injection, schedule: Q04DX004 (sc), vehicle: saline with Tween-80) was 52 % of control and the T/C (dose: 1800.0 mg/kg/injection, schedule: Q04DX004 (sc), vehicle: saline with Tween-80) was 62 % of control.

For `COCC1OC2OC3C(COC)OC(OC4C(COC)OC(OC5C(COC)OC(OC6C(COC)OC(OC7C(COC)OC(OC8C(COC)OC(OC1C(O)C2O)C(O)C8O)C(O)C7O)C(O)C6O)C(O)C5O)C(O)C4O)C(O)C3O` (stereo not given) (tested in a mixture with another compound), the T/C [5] was 116 % of control and the T/C [6] was 67 % of control.

`C=C(C)C(=O)OC1C/C(CO)=C\C(O)C/C(C)=C/C2OC(=O)C(=C)C21` (stereo not given) was tested, and the T/C (dose: 20.0 mg/kg/injection, schedule: Q04DX004 (sc), vehicle: saline + alcohol) was 100 % of control, the T/C (dose: 40.0 mg/kg/injection, schedule: Q04DX004 (sc), vehicle: saline + alcohol) was 83 % of control and the T/C (dose: 80.0 mg/kg/injection, schedule: Q04DX004 (sc), vehicle: saline + alcohol) was 70 % of control.

With `C=CCOCC1CO1` (stereo not given) the T/C (dose: 75.0 mg/kg/injection, schedule: Q04DX004 (sc), vehicle: saline) was 120 % of control, the T/C (dose: 150.0 mg/kg/injection, schedule: Q04DX004 (sc), vehicle: saline) was 100 % of control and the T/C (dose: 300.0 mg/kg/injection, schedule: Q04DX004 (sc), vehicle: saline) was 54 % of control.

In the case of `Nc1ncn(C2CC(O)C(CO)O2)c(=O)n1` (stereo not given), the T/C (dose: 0.2 mg/kg/injection, schedule: Q01DX010 (sc), vehicle: saline) was 84 % of control.

In the case of `CC1(C)N=C(N)N=C(N)N1c1ccc(CCCCc2ccc(S(=O)(=O)F)cc2Cl)c(Cl)c1`, the T/C [7] was 84 % of control and 100 % of control, the T/C [8] was 98 % of control and the T/C (dose: 100.0 mg/kg/injection, schedule: Q01DX010 (sc), vehicle: saline) was 81 % of control.

In the case of `[I][Hg][CH2]C1COC([CH2][Hg][I])CO1` (stereo not given), the T/C (dose: 300.0 mg/kg/injection, schedule: Q04DX004 (sc), vehicle: saline with Tween-80) was 54 % of control, the T/C (dose: 600.0 mg/kg/injection, schedule: Q04DX004 (sc), vehicle: saline with Tween-80) was 55 % of control and the T/C (dose: 1200.0 mg/kg/injection, schedule: Q04DX004 (sc), vehicle: saline with Tween-80) was 57 % of control. For the same molecule, the T/C (dose: 2400.0 mg/kg/injection, schedule: Q04DX004 (sc), vehicle: saline with Tween-80) was 32 % of control.

In the case of `COc1ccc(C(=O)/C(Br)=C/C(=O)O)cc1`, the T/C [7] was 73 % of control, the T/C (dose: 25.0 mg/kg/injection, schedule: Q01DX010 (sc), vehicle: saline) was 122 % of control and the T/C [8] was 56 % of control.
